Assays:
Test in all cases: KINOMEscan
Assay type in all cases: binding
[1] = biological target: TAK1 (Homo sapiens (Human), UniProt O43318); details: read-out: percent control
Text: (§1) Example 2. In Vitro Kinase Selectivity Profiling of the Compounds of the Present Disclosure

[2] = biological target: PRKG2 (Homo sapiens (Human), UniProt Q13237); details: read-out: percent control
Text: as §1

[3] = biological target: CASK (Homo sapiens (Human), UniProt O14936); details: read-out: percent control
Chain of CASK (O14936 whole entry): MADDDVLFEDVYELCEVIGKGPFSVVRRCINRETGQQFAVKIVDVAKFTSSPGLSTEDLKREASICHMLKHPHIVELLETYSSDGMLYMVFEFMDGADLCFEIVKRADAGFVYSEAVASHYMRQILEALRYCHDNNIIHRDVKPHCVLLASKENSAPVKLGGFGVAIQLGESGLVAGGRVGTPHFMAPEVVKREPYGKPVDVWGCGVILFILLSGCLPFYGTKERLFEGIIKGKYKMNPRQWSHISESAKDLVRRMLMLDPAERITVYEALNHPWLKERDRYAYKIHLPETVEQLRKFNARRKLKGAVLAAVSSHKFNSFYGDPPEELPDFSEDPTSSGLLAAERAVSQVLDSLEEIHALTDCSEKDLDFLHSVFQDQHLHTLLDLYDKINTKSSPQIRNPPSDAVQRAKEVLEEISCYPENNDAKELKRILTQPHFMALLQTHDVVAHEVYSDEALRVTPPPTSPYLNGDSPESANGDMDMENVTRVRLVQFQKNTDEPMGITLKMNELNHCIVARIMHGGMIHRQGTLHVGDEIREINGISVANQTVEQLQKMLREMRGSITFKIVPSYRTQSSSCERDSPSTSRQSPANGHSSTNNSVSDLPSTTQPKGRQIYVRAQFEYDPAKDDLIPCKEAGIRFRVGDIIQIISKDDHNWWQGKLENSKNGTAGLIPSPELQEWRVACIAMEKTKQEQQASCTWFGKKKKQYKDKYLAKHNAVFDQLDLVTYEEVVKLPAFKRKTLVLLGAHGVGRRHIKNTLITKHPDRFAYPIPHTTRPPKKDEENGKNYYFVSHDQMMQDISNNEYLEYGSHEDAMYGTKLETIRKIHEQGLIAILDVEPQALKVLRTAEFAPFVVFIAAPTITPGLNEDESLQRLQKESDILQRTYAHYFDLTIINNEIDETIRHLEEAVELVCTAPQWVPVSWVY
Text: as §1

[4] = biological target: MLK3 (Homo sapiens (Human), UniProt Q16584); details: read-out: percent control
Text: as §1

[5] = biological target: PRKX (Homo sapiens (Human), UniProt P51817); details: read-out: percent control
Text: as §1

[6] = biological target: PIK3CB (Homo sapiens (Human), UniProt P42338); details: read-out: percent control
Text: as §1

[7] = biological target: PLK2 (Homo sapiens (Human), UniProt Q9NYY3); details: read-out: percent control
Chain of PLK2 (Q9NYY3 whole entry): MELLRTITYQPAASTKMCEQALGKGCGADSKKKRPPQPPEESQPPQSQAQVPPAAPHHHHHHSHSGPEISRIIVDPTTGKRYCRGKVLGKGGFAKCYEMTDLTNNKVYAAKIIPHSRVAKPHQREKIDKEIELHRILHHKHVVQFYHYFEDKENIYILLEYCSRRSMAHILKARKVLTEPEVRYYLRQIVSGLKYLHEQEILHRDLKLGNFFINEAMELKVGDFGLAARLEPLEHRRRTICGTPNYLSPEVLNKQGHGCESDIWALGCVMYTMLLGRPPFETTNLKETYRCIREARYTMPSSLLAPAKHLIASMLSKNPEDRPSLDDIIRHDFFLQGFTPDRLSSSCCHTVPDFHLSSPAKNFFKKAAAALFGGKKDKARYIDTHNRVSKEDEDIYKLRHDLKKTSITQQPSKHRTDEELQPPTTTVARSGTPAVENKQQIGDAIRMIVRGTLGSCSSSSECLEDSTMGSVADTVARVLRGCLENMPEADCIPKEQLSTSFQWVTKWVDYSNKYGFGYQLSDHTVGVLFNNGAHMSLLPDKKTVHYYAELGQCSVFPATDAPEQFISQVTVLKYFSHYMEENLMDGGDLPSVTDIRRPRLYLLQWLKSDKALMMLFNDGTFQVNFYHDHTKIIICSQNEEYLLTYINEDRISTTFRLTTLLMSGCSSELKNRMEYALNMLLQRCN
Text: as §1

[8] = biological target: FAK (Homo sapiens (Human), UniProt Q05397); details: read-out: percent control
Text: as §1

[9] = biological target: PHKG2 (Homo sapiens (Human), UniProt P15735); details: read-out: percent control
Text: as §1

[10] = biological target: FGFR4 (Homo sapiens (Human), UniProt P22455); details: read-out: percent control
Text: as §1

[11] = biological target: PRKD2 (Homo sapiens (Human), UniProt Q9BZL6); details: read-out: percent control
Text: as §1

[12] = biological target: EGFR(E746-A750del) (Homo sapiens (Human), UniProt P00533, DEL746-750); details: read-out: percent control
Text: as §1

[13] = biological target: ERK8 (Homo sapiens (Human), UniProt Q8TD08); details: read-out: percent control
Text: as §1

[14] = biological target: HIPK1 (Homo sapiens (Human), UniProt Q86Z02); details: read-out: percent control
Text: as §1

[15] = biological target: BTK (Homo sapiens (Human), UniProt Q06187); details: read-out: percent control
Chain of BTK (Q06187 whole entry): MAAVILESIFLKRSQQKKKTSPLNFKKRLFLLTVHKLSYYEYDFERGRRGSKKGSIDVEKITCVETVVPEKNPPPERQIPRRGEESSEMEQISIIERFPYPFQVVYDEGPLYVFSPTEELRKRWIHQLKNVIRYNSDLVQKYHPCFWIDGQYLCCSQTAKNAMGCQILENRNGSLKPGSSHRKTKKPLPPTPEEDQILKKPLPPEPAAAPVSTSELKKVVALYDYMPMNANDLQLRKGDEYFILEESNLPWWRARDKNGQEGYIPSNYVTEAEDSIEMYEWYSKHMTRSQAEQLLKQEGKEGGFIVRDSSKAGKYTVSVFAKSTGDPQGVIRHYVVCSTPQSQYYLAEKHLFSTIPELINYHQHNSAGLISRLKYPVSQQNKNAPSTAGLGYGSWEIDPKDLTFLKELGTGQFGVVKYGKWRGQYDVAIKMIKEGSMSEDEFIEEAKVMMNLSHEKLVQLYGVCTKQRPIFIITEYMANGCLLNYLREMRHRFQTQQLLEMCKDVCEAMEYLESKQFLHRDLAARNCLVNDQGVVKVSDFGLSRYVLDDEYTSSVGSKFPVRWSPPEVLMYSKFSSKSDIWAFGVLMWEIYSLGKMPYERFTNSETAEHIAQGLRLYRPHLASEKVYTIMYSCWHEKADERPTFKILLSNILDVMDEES
Text: as §1

[16] = biological target: AKT1 (Homo sapiens (Human), UniProt P31749); details: read-out: percent control
Text: as §1

[17] = biological target: MAP4K2 (Homo sapiens (Human), UniProt Q12851); details: read-out: percent control
Text: as §1

[18] = biological target: RAF1 (Homo sapiens (Human), UniProt P04049); details: read-out: percent control
Text: as §1

[19] = biological target: TRPM6 (Homo sapiens (Human), UniProt Q9BX84); details: read-out: percent control
Text: as §1

[20] = biological target: ABL1(E255K)-phosphorylated (Homo sapiens (Human), UniProt P00519, E255K); details: read-out: percent control
Text: as §1

[21] = biological target: CSNK2A1 (Homo sapiens (Human), UniProt P68400); details: read-out: percent control
Chain of CSNK2A1 (P68400 whole entry): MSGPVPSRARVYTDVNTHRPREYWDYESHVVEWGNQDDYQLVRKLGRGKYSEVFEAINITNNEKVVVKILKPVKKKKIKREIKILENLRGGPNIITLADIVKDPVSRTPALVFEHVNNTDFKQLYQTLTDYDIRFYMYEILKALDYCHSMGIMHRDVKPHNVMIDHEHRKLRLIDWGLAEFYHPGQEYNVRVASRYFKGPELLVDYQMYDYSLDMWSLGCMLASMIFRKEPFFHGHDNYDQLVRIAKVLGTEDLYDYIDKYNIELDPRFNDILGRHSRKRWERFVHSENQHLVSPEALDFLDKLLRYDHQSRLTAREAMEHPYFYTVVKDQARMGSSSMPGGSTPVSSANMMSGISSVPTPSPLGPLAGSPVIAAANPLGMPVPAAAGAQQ
Text: as §1

[22] = biological target: DCAMKL1 (Homo sapiens (Human), UniProt O15075); details: read-out: percent control
Text: as §1

[23] = biological target: SLK (Homo sapiens (Human), UniProt Q9H2G2); details: read-out: percent control
Text: as §1

[24] = biological target: TYRO3 (Homo sapiens (Human), UniProt Q06418); details: read-out: percent control
Text: as §1

[25] = biological target: NEK7 (Homo sapiens (Human), UniProt Q8TDX7); details: read-out: percent control
Text: as §1

[26] = biological target: FRK (Homo sapiens (Human), UniProt P42685); details: read-out: percent control
Chain of FRK (P42685 whole entry): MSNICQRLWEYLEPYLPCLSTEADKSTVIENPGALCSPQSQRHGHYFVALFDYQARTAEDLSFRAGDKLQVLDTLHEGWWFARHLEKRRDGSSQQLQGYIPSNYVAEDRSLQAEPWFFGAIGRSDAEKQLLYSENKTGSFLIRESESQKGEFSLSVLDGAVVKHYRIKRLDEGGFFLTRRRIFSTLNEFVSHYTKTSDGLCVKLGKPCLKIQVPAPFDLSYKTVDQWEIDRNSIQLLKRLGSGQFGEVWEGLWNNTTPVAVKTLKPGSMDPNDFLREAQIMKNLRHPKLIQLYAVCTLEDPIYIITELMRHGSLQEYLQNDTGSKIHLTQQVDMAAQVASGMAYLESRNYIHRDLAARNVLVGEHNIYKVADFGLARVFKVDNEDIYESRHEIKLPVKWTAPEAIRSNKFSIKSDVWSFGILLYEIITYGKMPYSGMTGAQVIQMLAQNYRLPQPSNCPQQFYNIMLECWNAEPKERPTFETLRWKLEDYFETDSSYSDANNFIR
Text: as §1

[27] = biological target: BMPR1B (Homo sapiens (Human), UniProt O00238); details: read-out: percent control
Chain of BMPR1B (O00238 14-502): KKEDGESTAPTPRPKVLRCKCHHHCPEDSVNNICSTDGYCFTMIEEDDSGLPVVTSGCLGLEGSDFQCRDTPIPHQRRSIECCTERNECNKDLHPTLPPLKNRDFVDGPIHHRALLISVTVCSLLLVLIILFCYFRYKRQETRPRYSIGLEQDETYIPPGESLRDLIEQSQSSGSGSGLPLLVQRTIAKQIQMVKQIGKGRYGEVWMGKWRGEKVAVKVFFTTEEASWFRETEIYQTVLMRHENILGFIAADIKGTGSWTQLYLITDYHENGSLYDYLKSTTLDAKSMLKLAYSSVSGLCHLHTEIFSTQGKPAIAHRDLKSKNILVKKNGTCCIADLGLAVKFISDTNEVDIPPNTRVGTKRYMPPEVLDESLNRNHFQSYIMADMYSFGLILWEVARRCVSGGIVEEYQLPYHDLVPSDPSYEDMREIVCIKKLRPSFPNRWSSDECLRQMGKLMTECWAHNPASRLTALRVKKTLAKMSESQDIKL
Text: as §1

[28] = biological target: YANK1 (Homo sapiens (Human), UniProt Q8WU08); details: read-out: percent control
Text: as §1

[29] = biological target: DMPK2 (Homo sapiens (Human), UniProt Q6DT37); details: read-out: percent control
Text: as §1

[30] = biological target: MARK1 (Homo sapiens (Human), UniProt Q9P0L2); details: read-out: percent control
Text: as §1

[31] = biological target: ERK2 (Homo sapiens (Human), UniProt P28482); details: read-out: percent control
Text: as §1

[32] = system: EGFR(L747-T751del, Sins); details: 1 μM
Text: as §1

[33] = biological target: EGFR(L861Q) (Homo sapiens (Human), UniProt P00533, L861Q); details: read-out: percent control
Text: as §1

[34] = biological target: ROCK2 (Homo sapiens (Human), UniProt O75116); details: read-out: percent control
Text: as §1

[35] = biological target: PIK3CA(E545K) (Homo sapiens (Human), UniProt P42336, E545K); details: read-out: percent control
Text: as §1

[36] = biological target: FLT4 (Homo sapiens (Human), UniProt P35916); details: read-out: percent control
Chain of FLT4 (P35916 25-1363): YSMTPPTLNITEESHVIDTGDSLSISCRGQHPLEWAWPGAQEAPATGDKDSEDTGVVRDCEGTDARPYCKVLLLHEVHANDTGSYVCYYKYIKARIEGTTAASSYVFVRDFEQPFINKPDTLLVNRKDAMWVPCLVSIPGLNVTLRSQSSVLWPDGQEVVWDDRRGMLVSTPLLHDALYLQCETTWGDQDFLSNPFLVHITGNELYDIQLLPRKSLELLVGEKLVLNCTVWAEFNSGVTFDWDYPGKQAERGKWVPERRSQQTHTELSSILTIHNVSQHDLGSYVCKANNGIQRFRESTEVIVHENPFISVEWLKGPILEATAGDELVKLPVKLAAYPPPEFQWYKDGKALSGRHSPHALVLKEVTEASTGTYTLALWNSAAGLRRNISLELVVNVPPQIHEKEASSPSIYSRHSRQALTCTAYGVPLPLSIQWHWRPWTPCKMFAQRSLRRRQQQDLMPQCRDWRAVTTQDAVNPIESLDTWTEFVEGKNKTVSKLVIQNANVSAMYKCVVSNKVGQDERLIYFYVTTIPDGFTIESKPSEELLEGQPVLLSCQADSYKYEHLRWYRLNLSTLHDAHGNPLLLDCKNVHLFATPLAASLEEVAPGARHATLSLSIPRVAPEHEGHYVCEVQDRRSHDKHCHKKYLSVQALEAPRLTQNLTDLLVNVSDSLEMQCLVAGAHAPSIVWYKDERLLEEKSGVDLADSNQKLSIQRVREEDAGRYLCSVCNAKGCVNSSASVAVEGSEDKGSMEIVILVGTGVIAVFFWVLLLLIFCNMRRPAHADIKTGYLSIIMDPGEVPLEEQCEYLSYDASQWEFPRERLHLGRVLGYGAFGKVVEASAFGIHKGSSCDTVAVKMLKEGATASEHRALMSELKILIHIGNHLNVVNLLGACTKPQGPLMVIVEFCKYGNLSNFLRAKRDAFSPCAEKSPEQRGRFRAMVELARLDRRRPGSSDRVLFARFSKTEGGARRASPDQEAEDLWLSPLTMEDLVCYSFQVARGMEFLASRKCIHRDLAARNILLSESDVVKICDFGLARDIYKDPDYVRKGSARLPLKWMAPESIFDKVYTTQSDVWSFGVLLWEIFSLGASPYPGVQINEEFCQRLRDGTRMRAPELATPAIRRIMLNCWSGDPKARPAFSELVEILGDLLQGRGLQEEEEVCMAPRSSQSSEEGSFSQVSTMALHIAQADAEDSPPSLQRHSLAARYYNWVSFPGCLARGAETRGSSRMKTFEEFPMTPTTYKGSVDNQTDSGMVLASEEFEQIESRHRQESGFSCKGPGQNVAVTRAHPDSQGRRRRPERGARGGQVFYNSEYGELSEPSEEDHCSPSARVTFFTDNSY
Text: as §1

[37] = biological target: JAK1(JH2domain-pseudokinase) (Homo sapiens (Human), UniProt P23458); details: read-out: percent control
Text: as §1

[38] = biological target: TNK1 (Homo sapiens (Human), UniProt Q13470); details: read-out: percent control
Text: as §1

[39] = biological target: BUB 1 (Homo sapiens (Human), UniProt O43683); details: read-out: percent control
Text: as §1

[40] = biological target: PRKR (Homo sapiens (Human), UniProt P19525); details: read-out: percent control
Text: as §1

[41] = biological target: NIM1 (Homo sapiens (Human), UniProt Q8IY84); details: read-out: percent control
Text: as §1

CCN1CCN(Cc2ccc(Nc3nc4ccc(Oc5ccnc(NC(C)=O)c5)cc4n3C)cc2C(F)(F)F)CC1 [Compound I-2]
remaining binding at 1 µM [1]: 28% | remaining binding at 1 µM [2]: 92% | remaining binding at 1 µM [3]: 78% | remaining binding at 1 µM [4]: 100% | remaining binding at 1 µM [5]: 100% | remaining binding at 1 µM [6]: 100% | remaining binding at 1 µM [7]: 94% | remaining binding at 1 µM [8]: 98% | remaining binding at 1 µM [9]: 85% | remaining binding at 1 µM [10]: 100% | remaining binding at 1 µM [11]: 92% | remaining binding at 1 µM [12]: 91% | remaining binding at 1 µM [13]: 79% | remaining binding at 1 µM [14]: 56% | remaining binding at 1 µM [15]: 78% | remaining binding at 1 µM [16]: 94% | remaining binding at 1 µM [17]: 100% | remaining binding at 1 µM [18]: 14% | remaining binding at 1 µM [19]: 79% | remaining binding at 1 µM [20]: 30% | remaining binding at 1 µM [21]: 66% | remaining binding at 1 µM [22]: 91% | remaining binding at 1 µM [23]: 81% | remaining binding at 1 µM [24]: 100% | remaining binding at 1 µM [25]: 88% | remaining binding at 1 µM [26]: 45% | remaining binding at 1 µM [27]: 84% | remaining binding at 1 µM [28]: 100% | remaining binding at 1 µM [29]: 89% | remaining binding at 1 µM [30]: 98% | remaining binding at 1 µM [31]: 95% | percent control [32]: 98% | remaining binding at 1 µM [33]: 98% | remaining binding at 1 µM [34]: 100% | remaining binding at 1 µM [35]: 80% | remaining binding at 1 µM [36]: 0.5% | remaining binding at 1 µM [37]: 97% | remaining binding at 1 µM [38]: 76% | remaining binding at 1 µM [39]: 100% | remaining binding at 1 µM [40]: 39% | remaining binding at 1 µM [41]: 97%

CCN1CCN(Cc2ccc(Nc3nc4ccc(Oc5ccnc(NC(C)=O)c5)c(C)c4n3C)cc2C(F)(F)F)CC1 [Compound I-6, N-(4-(2-(4-((4-ethylpiperazin-1-yl)methyl)-3-(trifluoromethyl)phenylamino)-1,7-dimethyl-1H-benzo[d]imidazol-6-yloxy)pyridin-2-yl)acetamide]
remaining binding at 1 µM [1]: 10% | remaining binding at 1 µM [2]: 93% | remaining binding at 1 µM [3]: 87% | remaining binding at 1 µM [4]: 95% | remaining binding at 1 µM [5]: 100% | remaining binding at 1 µM [6]: 96% | remaining binding at 1 µM [7]: 71% | remaining binding at 1 µM [8]: 94% | remaining binding at 1 µM [9]: 100% | remaining binding at 1 µM [10]: 100% | remaining binding at 1 µM [11]: 100% | remaining binding at 1 µM [12]: 89% | remaining binding at 1 µM [13]: 75% | remaining binding at 1 µM [14]: 81% | remaining binding at 1 µM [15]: 88% | remaining binding at 1 µM [16]: 89% | remaining binding at 1 µM [17]: 68% | remaining binding at 1 µM [18]: 16% | remaining binding at 1 µM [19]: 84% | remaining binding at 1 µM [20]: 33% | remaining binding at 1 µM [21]: 91% | remaining binding at 1 µM [22]: 69% | remaining binding at 1 µM [23]: 55% | remaining binding at 1 µM [24]: 100% | remaining binding at 1 µM [25]: 95% | remaining binding at 1 µM [26]: 11% | remaining binding at 1 µM [27]: 89% | remaining binding at 1 µM [28]: 93% | remaining binding at 1 µM [29]: 83% | remaining binding at 1 µM [30]: 92% | remaining binding at 1 µM [31]: 100% | percent control [32]: 100% | remaining binding at 1 µM [33]: 100% | remaining binding at 1 µM [34]: 90% | remaining binding at 1 µM [35]: 97% | remaining binding at 1 µM [36]: 0.7% | remaining binding at 1 µM [37]: 82% | remaining binding at 1 µM [38]: 82% | remaining binding at 1 µM [39]: 100% | remaining binding at 1 µM [40]: 64% | remaining binding at 1 µM [41]: 93%
